According to patent US7442713B2, “2-thio-substituted imidazole derivatives and their use in pharmaceutics” (Merckle GmbH, priority 2002, dated 2008):
Like-named read-outs stand apart in the source and are kept apart here.

Columns and labels:
activated p38α = activated p38α (Homo sapiens, UniProt Q16539); assay: Kinase assay (p38α, ATF2 substrate, ELISA read-out); format: biochemical
Protocol: At 37° C., microtiter plates were coated with 50 μl of ATF2 solution ([…]) for one hour. The plates were washed three times with water, and 50 μl of kinase mixture (50 mM tris-HCl, 10 mM MgCl2, 10 mM β-glycerol phosphate, 10 μg/ml BSA, 1 mM DTT, 100 μM ATP, 100 μM Na3VO4, 10 ng of activated p38α) with or without inhibitor were then added into the wells, and the plates were incubated at 37° C. for 1 hour. The plates were washed three times and then incubated at 37° C. with phosphorus-ATF-2 antibodies for one hour. Once more, the plates were washed three times, and goat-anti-rabbit IgG labeled with alkaline phosphatase was then added at 37° C. for one hour (to immobilize antibody-phosphorylated protein-substrate complex). After washing three times, the alkaline phosphatase-substrate solution (3 mM 4-NPP, 50 mM NaHCO3, 50 mM MgCl2, 100 μl/well) was added at 37° C. for 1.5 hours. The formation of 4-nitrophenolate was measured at 405 nm using a microtiter plate reader. The IC50 values were calculated.

IL-1β = assay: In vitro test of cytokine release, LPS-stimulated human whole blood / PBMCs: IL-1β; format: cell-based; settings: PBMC, LPS stimulation, ELISA, read-out: Cytokines IC50 IL-1β
Protocol: The compounds or compositions according to the invention can be administered to mammals (man or animal) in a dose of from about 0.5 mg to 100 mg per kg of body weight per day. They may be administered in one individual dose or in a plurality of doses. The activity spectrum of the compounds as inhibitors of cytokine release was examined using the test systems below, as described by C. Donat and S. Laufer in Arch. Pharm. Pharm. Med. Chem. 333, Suppl. 1, 1-40, 2000.
In vitro Test with Human Whole Blood
The test substance is added to samples of human potassium-EDTA whole blood (of 400 μl each) and the samples are preincubated in a CO2 incubator (5% CO2; 95% moisture-saturated air) at 37° C. for 15 min. The samples are then stimulated with 1 μg/ml of LPS (E. coli 026:B6) at 37° C. in a CO2 incubator (5% CO2; 95% moisture-saturated air) for 4 hours. The reaction is stopped by placing the samples on ice, adding DPBS buffer and then centrifuging at 1000*g for 15 min. The amount of IL-1β and TNFα in the plasma supernatant is then determined by ELISA.
1) The mononuclear cells (PBMCs) from human potassium-EDTA whole blood, diluted 1:3, are isolated by density gradient centrifugation (Histopaque®-1.077). The cells are washed twice with DPBS buffer, resuspended in macrophage SFM medium and adjusted to a cell count of 1*10^6 cells/ml.
The resulting PBMCs suspension (samples of in each case 390 μl) and the test substance are preincubated at 37° C. in a CO2 incubator (5% CO2; 95% moisture-saturated air) for 15 min. The samples are then stimulated with in each case […] of LPS (E. coli 026:B6) at 37° C. in a CO2 incubator (5% CO2; 95% moisture-saturated air) for 4 hours. The reaction is stopped by placing the samples on ice, adding DPBS buffer and then centrifuging at 15 880*g for 12 min. The amount of IL-1β and TNFα in the plasma supernatant is then determined by ELISA.

[1] = Table 1, 100 μM ATP, 10 ng activated p38α, read-out: Kinase assay IC50

activated p38α, sequence (Q16539 whole entry): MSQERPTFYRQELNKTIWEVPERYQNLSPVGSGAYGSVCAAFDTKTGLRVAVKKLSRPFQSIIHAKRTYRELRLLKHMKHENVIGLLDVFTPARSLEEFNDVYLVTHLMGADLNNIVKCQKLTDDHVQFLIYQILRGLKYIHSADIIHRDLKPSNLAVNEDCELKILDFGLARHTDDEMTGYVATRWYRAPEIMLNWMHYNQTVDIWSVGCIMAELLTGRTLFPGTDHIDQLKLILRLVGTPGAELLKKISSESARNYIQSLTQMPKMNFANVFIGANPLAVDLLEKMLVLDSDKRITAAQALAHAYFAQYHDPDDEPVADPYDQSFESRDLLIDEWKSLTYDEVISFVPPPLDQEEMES

Row | IC50 (activated p38α; [1]) [µM] | Structure (SMILES) | also measured
1 | – | Cn1c(SCC(=O)N(CCO)CCO)nc(-c2ccc(F)cc2)c1-c1ccnc(N)c1 [Example 71, 2-[5-(2-Aminopyridin-4-yl)-4-(4-fluorophenyl)-1-methyl-1H-imidazol-2-ylsulfanyl]-N,N-bis(2-hydroxyethyl)acetamide] | inhibition at 1 µM (activated p38α; Table 2): 76%; IC50 (activated p38α; Table 2, read-out: p38α IC50): 0.9 µM
2 | – | CC(=O)Nc1cc(-c2c(-c3ccc(F)cc3)nc(SCC(O)CO)n2C)ccn1 (centres unmarked) [Example 67, N-{4-[2-(2,3-dihydroxypropanesulfanyl)-5-(4-fluorophenyl)-3-methyl-3H-imidazol-4-yl]pyridin-2-yl}acetamide] | inhibition at 1 µM (activated p38α; Table 2): 77%; IC50 (activated p38α; Table 2, read-out: p38α IC50): 0.43 µM
3 | 2 | Cn1c(SCCC(=O)O)nc(-c2ccc(F)cc2)c1-c1ccncc1 [Example 37, 3-[4-(4-Fluorophenyl)-1-methyl-5-pyridin-4-yl-1H-imidazol-2-ylsulfanyl]propionic acid] | –
4 | – | CC(=O)CSc1nc(-c2ccc(F)cc2)c(-c2ccncc2)n1C [Example 26, 1-[4-(4-Fluorophenyl)-1-methyl-5-pyridin-4-yl-1H-imidazol-2-ylsulfanyl]propan-2-one] | IC50 (IL-1β): 0.083 µM; Kinase assay % at 10^−5 mol/l (activated p38α; Table 1): 37.0% at10^−5 mol/l
5 | 1.6 | Cn1c(SCC(=O)O)nc(-c2ccc(F)cc2)c1-c1ccncc1 [Example 36, 2-[4-(4-Fluorophenyl)-1-methyl-5-pyridin-4-yl-1H-imidazol-2-ylsulfanyl]acetic acid] | –
6 | 42 | COC(=O)/C=C/CSc1nc(-c2ccc(F)cc2)c(-c2ccncc2)n1C [Example 31, Methyl 4-[4-(4-fluorophenyl)-1-methyl-5-pyridin-4-yl-1H-imidazol-2-ylsulfanyl]but-2-enoate] | –
7 | 1.8 | Cn1c(SCCN)nc(-c2ccc(F)cc2)c1-c1ccncc1 [Example 59, 2-[4-(4-Fluorophenyl)-1-methyl-5-pyridin-4-yl-1H-imidazol-2-ylsulfanyl]ethylamine] | –
8 | – | Cn1c(SCCC(=O)O)nc(-c2ccc(F)cc2)c1-c1ccnc(N)c1 [Example 72, 3-[5-(2-Aminopyridin-4-yl)-4-(4-fluorophenyl)-1-methyl-1H-imidazol-2-ylsulfanyl]propionic acid] | inhibition at 1 µM (activated p38α; Table 2): 64%
9 | 4.8 | CCOC(=O)CC(=O)CSc1nc(-c2ccc(F)cc2)c(-c2ccncc2)n1C [Example 30, Ethyl 4-[4-(4-fluorophenyl)-1-methyl-5-pyridin-4-yl-1H-imidazol-2-ylsulfanyl]-3-oxobutanoate] | –
10 | 2.4 | Cn1c(SCCCN2C(=O)c3ccccc3C2=O)nc(-c2ccc(F)cc2)c1-c1ccncc1 [Example 49, 2-{3-[4-(4-Fluorophenyl)-1-methyl-5-pyridin-4-yl-1H-imidazol-2-ylsulfanyl]propyl}isoindole-1,3-dione] | –
11 | 7 | CCOC(=O)C(=O)CSc1nc(-c2ccc(F)cc2)c(-c2ccncc2)n1C [Example 45, Ethyl 3-[4-(4-fluorophenyl)-1-methyl-5-pyridin-4-yl-1H-imidazol-2-ylsulfanyl]-2-oxopropionate] | –
12 | – | Cn1c(SCC(O)CO)nc(-c2ccc(F)cc2)c1-c1ccncc1 (centres unmarked) [Example 57, 3-[4-(4-Fluorophenyl)-1-methyl-5-pyridin-4-yl-1H-imidazol-2-yl-sulfanyl]propan-1,2-diol] | IC50 (activated p38α; Table 2, read-out: p38α IC50): 3.6 µM
13 | 5.5 | O=C1c2ccccc2C(=O)N1CCCSc1nc(-c2ccc(F)cc2)c(-c2ccncc2)[nH]1 [Example 25d, 5-(4-Fluorophenyl)-4-(4-pyridinyl)imidazole-2-thio-3-propyl-N-phthalimide] | IC50 (IL-1β): 0.92 µM
14 | – | CC(=O)CC(=O)CSc1nc(-c2ccc(F)cc2)c(-c2ccncc2)n1C [Example 38, 1-[4-(4-Fluorophenyl)-1-methyl-5-pyridin-4-yl-1H-imidazol-2-ylsulfanyl]pentane-2,4-dione] | Kinase assay % at 10^−6 mol/l (activated p38α; Table 1): 12.22% at10^−6 mol/l
15 | 3.4 | Cn1c(SCCCCl)nc(-c2ccc(F)cc2)c1-c1ccncc1 [Example 47, 4-[2-(3-Chloropropylsulfanyl)-5-(4-fluorophenyl)-3-methyl-3H-imidazol-4-yl]pyridine] | –
16 | 9.5 | CC(=O)C(Sc1nc(-c2ccc(F)cc2)c(-c2ccncc2)n1C)C(C)=O [Example 28, 3-[4-(4-Fluorophenyl)-1-methyl-5-pyridin-4-yl-1H-imidazol-2-ylsulfanyl]pentane-2,4-dione] | –
17 | 0.41 | Cn1c(SCC(=O)N(CCO)CCO)nc(-c2ccc(F)cc2)c1-c1ccncc1 [Example 41, 2-[4-(4-Fluorophenyl)-1-methyl-5-pyridin-4-yl-1H-imidazol-2-ylsulfanyl]-N,N-bis(2-hydroxyethyl)acetamide] | –
18 | – | CCOC(=O)CCSc1nc(-c2ccc(F)cc2)c(-c2ccnc(NC(C)=O)c2)n1C [Example 70, Ethyl 3-[5-(2-acetylaminopyridin-4-yl)-4-(4-fluorophenyl)-1-methyl-1H-imidazol-2-ylsulfanyl]propionate] | inhibition at 1 µM (activated p38α; Table 2): 83%; IC50 (activated p38α; Table 2, read-out: p38α IC50): 0.53 µM
19 | 0.8 | Cn1c(SCC(=O)NC(CO)(CO)CO)nc(-c2ccc(F)cc2)c1-c1ccncc1 [Example 40, 2-[4-(4-Fluorophenyl)-1-methyl-5-pyridin-4-yl-1H-imidazol-2-ylsulfanyl]-N-(2-hydroxy-1,1-bishydroxymethylethyl)acetamide] | –
20 | 90 | Cn1c(SCC(=O)N2CCOCC2)nc(-c2ccc(F)cc2)c1-c1ccncc1 [Example 32, 2-[4-(4-Fluorophenyl)-1-methyl-5-pyridin-4-yl-1H-imidazol-2-ylsulfanyl]-1-morpholin-4-ylethanone] | –
21 | – | Cn1c(SCC(=O)NCC(O)CO)nc(-c2ccc(F)cc2)c1-c1ccncc1 (centres unmarked) [Example 42, N-(2,3-Dihydroxypropyl)-2-[4-(4-fluorophenyl)-1-methyl-5-pyridin-4-yl-1H-imidazol-2-ylsulfanyl]acetamide] | Kinase assay % at 10^−4 mol/l (activated p38α; Table 1, at 10^−4 mol/l): 90.4% at10^−4 mol/l
22 | 1.4 | Cn1c(SCCCN)nc(-c2ccc(F)cc2)c1-c1ccncc1 [Example 60] | –
23 | – | CCOC(=O)C(Sc1nc(-c2ccc(F)cc2)c(-c2ccncc2)n1C)C(C)=O (centres unmarked) [Example 29, Ethyl 2-[4-(4-fluorophenyl)-1-methyl-5-pyridin-4-yl-1H-imidazol-2-ylsulfanyl]-3-oxobutanoate] | Kinase assay % at 10^−5 mol/l (activated p38α; Table 1): 13.8% at10^−5 mol/l
24 | – | Cn1c(SCCN2C(=O)c3ccccc3C2=O)nc(-c2ccc(F)cc2)c1-c1ccncc1 [Example 48, 2-{2-[4-(4-Fluorophenyl)-1-methyl-5-pyridin-4-yl-1H-imidazol-2-ylsulfanyl]ethyl}isoindole-1,3-dione] | Kinase assay % at 10^−6 mol/l (activated p38α; Table 1): 30.9% at 10^−6 mol/l
25 | 12 | Cn1c(SCCC(=O)NC(CO)(CO)CO)nc(-c2ccc(F)cc2)c1-c1ccncc1 [Example 43, 3-[4-(4-Fluorophenyl)-1-methyl-5-pyridin-4-yl-1H-imidazol-2-ylsulfanyl]-N-(2-hydroxy-1,1-bishydroxymethylethyl)propionamide] | –
26 | 5 | Cn1c(SCCCC(=O)O)nc(-c2ccc(F)cc2)c1-c1ccncc1 [Example 39, 4-[4-(4-Fluorophenyl)-1-methyl-5-pyridin-4-yl-1H-imidazol-2-ylsulfanyl]butanoic acid] | –
27 | 30 | Cn1c(SCCC(=O)N(CCO)CCO)nc(-c2ccc(F)cc2)c1-c1ccncc1 [Example 44, 3-[4-(4-Fluorophenyl)-1-methyl-5-pyridin-4-yl-1H-imidazol-2-ylsulfanyl]-N,N-bis(2-hydroxyethyl)propionamide] | –
28 | 75 | Cn1c(SCC(=O)N2CCCCC2)nc(-c2ccc(F)cc2)c1-c1ccncc1 [Example 33, 2-[4-(4-Fluorophenyl)-1-methyl-5-pyridin-4-yl-1H-imidazol-2-ylsulfanyl]-1-piperidin-1-ylethanone] | –
29 | – | CC(=O)Nc1cc(-c2c(-c3ccc(F)cc3)nc(SCC(=O)N(CCO)CCO)n2C)ccn1 [Example 69, 2-[5-(2-Acetylaminopyridin-4-yl)-4-(4-fluorophenyl)-1-methyl-1H-imidazol-2-ylsulfanyl]-N,N-bis(2-hydroxyethyl)acetamide] | inhibition at 1 µM (activated p38α; Table 2): 90%; IC50 (activated p38α; Table 2, read-out: p38α IC50): 0.25 µM
